According to patent US20120121540A1 (priority 2007, published 2012):

Test: HCV replicon assay (luciferase reporter, ET cell line)
Type: cell-based
Details: Hepatitis C virus, HCV replicon luciferase activity in ET cells
Description: A cell line, ET (Huh-lucubineo-ET) is used for screening of compounds for inhibiting HCV RNA dependent RNA polymerase. The ET cell line is stably transfected with RNA transcripts harboring a I389 luc-ubi-neo/NS3-3′/ET; replicon with firefly luciferase-ubiquitin-neomycin phosphotransferase fusion protein and EMCV-IRES driven NS3-5B polyprotein containing the cell culture adaptive mutations (E1202G; T1280I; K1846T) (Krieger at al, 2001 and unpublished). The ET cells are grown in DMEM (Dulbeco's Modified Eagle's Medium), supplemented with 10% fetal calf serum, 2 mM Glutamine, Penicillin (100 IU/mL)/Streptomycin (100 μg/mL), 1× nonessential amino acids, and 250 μg/mL G418 (“Geneticin”). They are all available through Life Technologies (Bethesda, Md.). The cells are plated at 0.5−1.0×10^4 cells/well in the 96 well plates and incubated for 24 hrs before adding test compound. The compounds are added to the cells to achieve a final concentration of 0.1 nM to 50 μm and a final DMSO (dimethylsulfoxide) concentration of 0.5%. Luciferase activity is measured 48-72 hours later by adding a lysis buffer and the substrate (Catalog number Glo-lysis buffer E2661 and Bright-Glo luciferase system E2620 Promega, Madison, Wis.). Cells should not be too confluent during the assay. Percent inhibition of replication data is plotted relative to no compound control. Under the same condition, cytotoxicity of the compounds are determined using cell proliferation reagent, WST-1 (Roche, Germany). The compounds showing antiviral activities, but no significant cytotoxicities are chosen to determine EC50 and TC50. For these determinations, a 10 point, 2-fold serial dilution for each compound was used, which spans a concentration range of 1000 fold. EC50 and similarly TC50 values were calculated by fitting % inhibition at each concentration to the following equation:
% inhibition=100%/[(EC50/[I])^b+1]
where b is Hill's coefficient.
% inhibition values at a specific concentration, […] for example, can also be derived from the equation above.

Structure (SMILES) | inhibition at 10 µM
O=C(NCc1cccs1)c1nn2c(Br)cc(-c3ccccc3)cc2c1Br [Compound 113, 3,7-dibromo-5-phenyl-pyrazolo[1,5-a]pyridine-2-carboxylic Acid (thiophen-2-ylmethyl)-amide] | 77.3%
O=C(c1nc2c(C(F)(F)F)cc(-c3ccco3)cn2c1Cl)N1CCC(c2ccccc2)CC1 [Compound 218, (3-Chloro-6-furan-2-yl-8-trifluoromethyl-imidazo[1,2-a]pyridin-2-yl)-(4-phenyl-piperidin-1-yl)-methanone] | 63.5%
O=C(c1nc2c(C(F)(F)F)cc(-c3cn[nH]c3)cn2c1Cl)N1CCC(c2ccccc2F)C1 (stereo not shown) [Compound 257, [3-Chloro-6-(1H-pyrazol-4-yl)-8-trifluoromethyl-imidazo[1,2-a]pyridin-2-yl]-[3-(2-fluoro-phenyl)-pyrrolidin-1-yl]-methanone] | 92.2%
O=C(NCc1cccs1)c1nc2c(C(F)(F)F)cc(-c3cnoc3)cn2c1Cl [Compound 288, 3-Chloro-6-isoxazol-4-yl-8-trifluoromethyl-imidazo[1,2-a]pyridine-2-carboxylic Acid(thiophen-2-ylmethyl)-amide] | 85%
O=C(NCc1cccs1)c1cc2cc(-c3ccco3)cc(Cl)c2[nH]1 [Compound 105, 7-Chloro-5-furan-2-yl-1H-indole-2-carboxylic acid (thiophen-2-ylmethyl)-amide] | 58.2%
O=C(c1nc2c(C(F)(F)F)cc(-c3ccoc3)cn2c1Br)N1CCC(c2ccc(F)cc2)C1 (stereo not shown) [Compound 253, (3-Bromo-6-furan-3-yl-8-trifluoromethyl-imidazo[1,2-a]pyridin-2-yl)-[3-(4-fluoro-phenyl)-pyrrolidin-1-yl]-methanone] | 98%
CN(C)CCNC(=O)Cc1c(C(=O)N2CCC(c3ccc(F)cc3)C2)nc2c(C(F)(F)F)cc(-c3ccoc3)cn12 (stereo not shown) [Compound 241, N-(2-Dimethylamino-ethyl)-2-{2-[3-(4-fluoro-phenyl)-pyrrolidine-1-carbonyl]-6-furan-3-yl-8-trifluoromethyl-imidazo[1,2-a]pyridin-3-yl}-acetamide] | 100%
O=C(NCc1cccs1)c1nc2c(C(F)(F)F)cc(-c3cccc(F)c3)cn2c1C1=CCCCC1 [Compound 303, 3-Cyclohex-1-enyl-6-(3-fluoro-phenyl)-8-trifluoromethyl-imidazo[1,2-a]pyridine-2-carboxylic Acid (thiophen-2-ylmethyl)-amide] | 39.7%
O=C(c1nc2c(C(F)(F)F)cc(-c3ccoc3)cn2c1Cl)N1CC=C(c2cn[nH]c2)CC1 [Compound 579, (3-Chloro-6-furan-3-yl-8-trifluoromethyl-imidazo[1,2-a]pyridin-2-yl)-[4-(1-1H-pyrazol-4-yl)-3,6-dihydro-2H-pyridin-1-yl)-methanone] | 97.6%
O=C(c1nc2c(C(F)(F)F)cc(-c3ccoc3)cn2c1Cl)N1CCC(c2ccccc2)=N1 [Compound 477, (3-Chloro-6-furan-3-yl-8-trifluoromethyl-imidazo[1,2-a]pyridin-2-yl)-(3-phenyl-4,5-dihydro-pyrazol-1-yl)-methanone] | 97.6%
CC(C)Cn1cc(-c2cc(C(F)(F)F)c3nc(C(=O)NCc4cccs4)c(Cl)n3c2)cn1 [Compound 649, 3-Chloro-6-(1-isobutyl-1H-pyrazol-4-yl)-8-trifluoromethyl-imidazo[1,2-a]pyridine-2-carboxylic Acid(thiophen-2-ylmethyl)-amide] | 62.7%
O=C(c1nc2c(C(F)(F)F)cc(-c3ccco3)cn2c1Cl)N1CCC(c2ccccc2)C1 (stereo not shown) [Compound 186, (3-Chloro-6-furan-2-yl-8-trifluoromethyl-imidazo[1,2-a]pyridin-2-yl)-(3-phenyl-pyrrolidin-1-yl)-methanone] | 96%
O=C(c1nc2c(C(F)(F)F)cc(-c3ccoc3)cn2c1Cl)N1CCN(c2ccc(F)c(F)c2)CC1 [Compound 538] | 78.3%
O=C(c1nc2c(C(F)(F)F)cc(-c3ccoc3)cn2c1Cl)N1CC=C(c2ccn[nH]2)CC1 [Compound 584, (3-Chloro-6-furan-3-yl-8-trifluoromethyl-imidazo[1,2-a]pyridin-2-yl)-[4-(2H-pyrazol-3-yl)-3,6-dihydro-2H-pyridin-1-yl]methanone] | 72.5%
O=C(c1nc2c(C(F)(F)F)cc(-c3ccoc3)cn2c1Cl)N1CCC(c2cscn2)CC1 [Compound 557, (3-Chloro-6-furan-3-yl-8-trifluoromethyl-imidazo[1,2-a]pyridin-2-yl)-(4-thiazol-4-yl-piperidin-1-yl)-methanone] | 93%
Cn1cc(-c2cc(C(F)(F)F)c3nc(C(=O)NCc4cccs4)c(Cl)n3c2)cn1 [Compound 280, 3-Chloro-6-(1-methyl-1H-pyrazol-4-yl)-8-trifluoromethyl-imidazo[1,2-a]pyridine-2-carboxylic Acid (thiophen-2-ylmethyl)-amide] | 83.9%
O=C(O)Cc1c(C(=O)N2CCC(c3ccc(F)cc3)C2)nc2c(C(F)(F)F)cc(-c3ccoc3)cn12 (stereo not shown) [Compound 236, {2-[3-(4-Fluoro-phenyl)-pyrrolidine-1-carbonyl]-6-furan-3-yl-8-trifluoromethyl-imidazo[1,2-a]pyridin-3-yl}-acetic Acid] | 49%
CN(C)CCN(Cc1cccs1)C(=O)c1nc2c(C(F)(F)F)cc(-c3ccco3)cn2c1Cl [Compound 319, 3-Chloro-6-furan-2-yl-8-trifluoromethyl-imidazo[1,2-a]pyridine-2-carboxylic Acid (2-dimethylamino-ethyl)-thiophen-2-ylmethyl-amide] | 58.8%
O=C(c1nc2c(C(F)(F)F)cc(-c3ccoc3)cn2c1Cl)N1CC=C(c2ccnc(F)c2)CC1 [Compound 587, (3-Chloro-6-furan-3-yl-8-trifluoromethyl-imidazo[1,2-a]pyridine-2-yl)-(2′-fluoro-3,6-dihydro-2H-[4,4′]bipyridinyl-1-yl)-methanone] | 76.9%
N#Cc1cc(F)ccc1C1=CCN(C(=O)c2nc3c(C(F)(F)F)cc(-c4ccoc4)cn3c2Cl)CC1 [Compound 570, 2-[1-(3-Chloro-6-furan-3-yl-8-trifluoromethyl-imidazo[1,2-a]pyridine-2-carbonyl)-1,2,3,6-tetrahydro-pyridin-4-yl]-5-fluoro-benzonitrile] | 89.1%
CN(C)c1cccc(-c2cc(C(F)(F)F)c3nc(C(=O)NCc4cccs4)c(Cl)n3c2)c1 [Compound 286, 3-Chloro-6-(3-dimethylamino-phenyl)-8-trifluoromethyl-imidazo[1,2-a]pyridine-2-carboxylic Acid (thiophen-2-ylmethyl)-amide] | 57.9%
O=C(c1nc2c(C(F)(F)F)cc(-c3ccoc3)cn2c1Cl)N1CC=C(c2cnoc2)CC1 [Compound 582, (3-Chloro-6-furan-3-yl-8-trifluoromethyl-imidazo[1,2-a]pyridin-2-yl)-(4-isoxazol-4-yl-3,6-dihydro-2H-pyridin-1-yl)-methanone] | 91.2%
O=C(NCc1cccs1)c1cn2cc(-c3ccco3)cc(C(F)(F)F)c2n1 [Compound 138, 6-Furan-2-yl-8-trifluoromethyl-imidazo[1,2-a]pyridine-2-carboxylic Acid (thiophen-2-ylmethyl)-amide] | 92.1%
O=C(Cc1cccs1)NCc1cn2cc(-c3ccoc3)cc(C(F)(F)F)c2n1 [Compound 388, N-(6-Furan-3-yl-8-trifluoromethyl-imidazo[1,2-a]pyridin-2-ylmethyl)-2-thiophen-2-yl-acetamide] | 97.2%
O=C(NCc1ccccc1F)c1nc2c(C(F)(F)F)cc(-c3ccoc3)cn2c1Cl [Compound 402, 3-Chloro-6-furan-3-yl-8-trifluoromethyl-imidazo[1,2-a]pyridine-2-carboxylic Acid-2-fluoro-benzylamide] | 94.9%
N#Cc1c(F)cccc1C1=CCN(C(=O)c2nc3c(C(F)(F)F)cc(-c4ccoc4)cn3c2Cl)CC1 [Compound 614, 2-[1-(3-Chloro-6-furan-3-yl-8-trifluoromethyl-imidazo[1,2-a]pyridine-2-carbonyl)-1,2,3,6-tetrahydro-pyridin-4-yl]-6-fluoro-benzonitrile] | 89.7%
CC(C)(C)C#Cc1c(C(=O)NCc2cccs2)nc2c(C(F)(F)F)cc(-c3cccc(F)c3)cn12 [Compound 307, 3-(3,3-Dimethyl-but-1-ynyl)-6-(3-fluoro-phenyl)-8-trifluoromethyl-imidazo[1,2-a]pyridine-2-carboxylic Acid (thiophen-2-ylmethyl)-amide] | 33.5%
CS(=O)(=O)N[C@@H]1CCN(C(=O)c2nc3c(C(F)(F)F)cc(-c4ccoc4)cn3c2Cl)C1 [Compound 480, N-[1-(3-Chloro-6-furan-3-yl-8-trifluoromethyl-imidazo[1,2-a]pyridine-2-carbonyl)-pyrrolidin-3-yl]-methanesulfonamide] | 47.7%
